Assay results: PubChem BioAssay AID1919009 (Molecular Pharmacology Branch, DTP, NCI, 2023)
One block for each compound: values may come before it.

Test system: K24384-001-R-PDC complex spheroid growth
Experiment: Anticancer human tumor K24384-001-R-PDC patient-derived pancreatic adenocarcinoma cell line growth inhibition [AhR]
Conditions: for IC50: curve of first compound; for viability, T/C: stronger effect = lower value
In short: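 Spheroids combined tumor cells with HUVEC endothelial cells and human MSCs as stroma. AhR antagonists were paired with standard or investigational drugs, each dosed in half-log steps down from near clinical Cmax, or from 10 microM where Cmax was unknown.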

[1] = second compound 0.1 µM, first compound 0.0316 µM
[2] = second compound 0.1 µM, first compound 0.1 µM
[3] = second compound 0.1 µM, first compound 0.316 µM
[4] = second compound 0.1 µM, first compound 1 µM
[5] = second compound 0.1 µM, first compound 3.16 µM
[6] = second compound 0.1 µM, first compound 10 µM
[7] = second compound 0.316 µM, first compound 0.0316 µM
[8] = second compound 0.316 µM, first compound 0.1 µM
[9] = second compound 0.316 µM, first compound 0.316 µM
[10] = second compound 0.316 µM, first compound 1 µM
[11] = second compound 0.316 µM, first compound 3.16 µM
[12] = second compound 0.316 µM, first compound 10 µM
[13] = second compound 1 µM, first compound 0.0316 µM
[14] = second compound 1 µM, first compound 0.1 µM
[15] = second compound 1 µM, first compound 0.316 µM
[16] = second compound 1 µM, first compound 1 µM
[17] = second compound 1 µM, first compound 3.16 µM
[18] = second compound 1 µM, first compound 10 µM
[19] = second compound 3.16 µM, first compound 0.0316 µM
[20] = second compound 3.16 µM, first compound 0.1 µM
[21] = second compound 3.16 µM, first compound 0.316 µM
[22] = second compound 3.16 µM, first compound 1 µM
[23] = second compound 3.16 µM, first compound 3.16 µM
[24] = second compound 3.16 µM, first compound 10 µM
[25] = second compound 10 µM, first compound 0.0316 µM
[26] = second compound 10 µM, first compound 0.1 µM
[27] = second compound 10 µM, first compound 0.316 µM
[28] = second compound 10 µM, first compound 1 µM
[29] = second compound 10 µM, first compound 3.16 µM
[30] = second compound 10 µM, first compound 10 µM
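Wherever viability, T/C is given: percent of DMSO vehicle-treated spheroid viability set as 100%.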

Structure (SMILES): COc1cc(Nc2ncc3c(n2)-c2ccc(Cl)cc2C(c2c(F)cccc2OC)=NC3)ccc1C(=O)O + Cc1cncc(-c2nc(NCCc3c[nH]c4ccccc34)c3ncn(C(C)C)c3n2)c1
IC50 (second compound 0.1 µM): 0.943 µM
IC50 (second compound 0.316 µM): 2.15 µM
IC50 (second compound 1 µM): > 10 µM
IC50 (second compound 3.16 µM): 10 µM
IC50 (second compound 10 µM): < 0.0316 µM
viability, T/C [1]: 81.9%
viability, T/C [2]: 70.1%
viability, T/C [3]: 69.6%
viability, T/C [4]: 43.9%
viability, T/C [5]: 53.1%
viability, T/C [6]: 49.9%
viability, T/C [7]: 95%
viability, T/C [8]: 66.4%
viability, T/C [9]: 68%
viability, T/C [10]: 41.1%
viability, T/C [11]: 53.4%
viability, T/C [12]: 47.7%
viability, T/C [13]: 85.3%
viability, T/C [14]: 82.7%
viability, T/C [15]: 75.2%
viability, T/C [16]: 63%
viability, T/C [17]: 50.3%
viability, T/C [18]: 51.5%
viability, T/C [19]: 80.5%
viability, T/C [20]: 77.2%
viability, T/C [21]: 72.8%
viability, T/C [22]: 44.8%
viability, T/C [23]: 58.6%
viability, T/C [24]: 62.1%
viability, T/C [25]: 11.1%
viability, T/C [26]: 11.8%
viability, T/C [27]: 10.3%
viability, T/C [28]: 9.55%
viability, T/C [29]: 9.44%
viability, T/C [30]: 17%

Structure (SMILES): NS(=O)(=O)OCC1CC(n2ccc3c(NC4CCc5ccccc54)ncnc32)CC1O (stereo not given) + Cc1cncc(-c2nc(NCCc3c[nH]c4ccccc34)c3ncn(C(C)C)c3n2)c1
IC50 (second compound 0.1 µM): 2.33 µM
IC50 (second compound 0.316 µM): 2.32 µM
IC50 (second compound 1 µM): 2.37 µM
IC50 (second compound 3.16 µM): 1.51 µM
IC50 (second compound 10 µM): < 0.0316 µM
viability, T/C [1]: 130%
viability, T/C [2]: 150%
viability, T/C [3]: 67.3%
viability, T/C [4]: 107%
viability, T/C [5]: 29.7%
viability, T/C [6]: 29.1%
viability, T/C [7]: 141%
viability, T/C [8]: 161%
viability, T/C [9]: 56.1%
viability, T/C [10]: 124%
viability, T/C [11]: 24%
viability, T/C [12]: 23.6%
viability, T/C [13]: 167%
viability, T/C [14]: 154%
viability, T/C [15]: 62%
viability, T/C [16]: 84.6%
viability, T/C [17]: 27.9%
viability, T/C [18]: 27%
viability, T/C [19]: 132%
viability, T/C [20]: 153%
viability, T/C [21]: 59.8%
viability, T/C [22]: 86.4%
viability, T/C [23]: 20.4%
viability, T/C [24]: 20.6%
viability, T/C [25]: 27.1%
viability, T/C [26]: 15.2%
viability, T/C [27]: 10.5%
viability, T/C [28]: 11.1%
viability, T/C [29]: 5.02%
viability, T/C [30]: 5.87%

Structure (SMILES): O=C(C=Cc1cccc(S(=O)(=O)Nc2ccccc2)c1)NO + Cc1cncc(-c2nc(NCCc3c[nH]c4ccccc34)c3ncn(C(C)C)c3n2)c1
IC50 (second compound 0.1 µM): 1.84 µM
IC50 (second compound 0.316 µM): 2.11 µM
IC50 (second compound 1 µM): 2.35 µM
IC50 (second compound 3.16 µM): 2.32 µM
IC50 (second compound 10 µM): < 0.0316 µM
viability, T/C [1]: 107%
viability, T/C [2]: 120%
viability, T/C [3]: 108%
viability, T/C [4]: 74.5%
viability, T/C [5]: 28.2%
viability, T/C [6]: 4.88%
viability, T/C [7]: 139%
viability, T/C [8]: 138%
viability, T/C [9]: 135%
viability, T/C [10]: 87.9%
viability, T/C [11]: 30.3%
viability, T/C [12]: 4.55%
viability, T/C [13]: 129%
viability, T/C [14]: 141%
viability, T/C [15]: 145%
viability, T/C [16]: 85.6%
viability, T/C [17]: 41.1%
viability, T/C [18]: 5.39%
viability, T/C [19]: 118%
viability, T/C [20]: 118%
viability, T/C [21]: 111%
viability, T/C [22]: 75.2%
viability, T/C [23]: 41.9%
viability, T/C [24]: 6.54%
viability, T/C [25]: 28.9%
viability, T/C [26]: 20.4%
viability, T/C [27]: 17.7%
viability, T/C [28]: 9.39%
viability, T/C [29]: 10.3%
viability, T/C [30]: 2.79%

Now from value to compound, other results behind:

IC50 (second compound 0.1 µM): 0.00754 µM
IC50 (second compound 0.316 µM): 0.0112 µM
IC50 (second compound 1 µM): 0.0107 µM
IC50 (second compound 3.16 µM): 0.00707 µM
IC50 (second compound 10 µM): < 0.000949 µM
Structure (SMILES): CC(C)CC(NC(=O)C(Cc1ccccc1)NC(=O)c1cnccn1)B(O)O (stereo not given) + Cc1cncc(-c2nc(NCCc3c[nH]c4ccccc34)c3ncn(C(C)C)c3n2)c1
viability, T/C (second compound 0.1 µM, first compound 0.000949 µM): 112%
viability, T/C (second compound 0.1 µM, first compound 0.003 µM): 83.3%
viability, T/C (second compound 0.1 µM, first compound 0.00949 µM): 46.1%
viability, T/C (second compound 0.1 µM, first compound 0.03 µM): 1.55%
viability, T/C (second compound 0.1 µM, first compound 0.0949 µM): 0.43%
viability, T/C (second compound 0.1 µM, first compound 0.3 µM): 0.56%
viability, T/C (second compound 0.316 µM, first compound 0.000949 µM): 107%
viability, T/C (second compound 0.316 µM, first compound 0.003 µM): 95%
viability, T/C (second compound 0.316 µM, first compound 0.00949 µM): 58.9%
viability, T/C (second compound 0.316 µM, first compound 0.03 µM): 1.17%
viability, T/C (second compound 0.316 µM, first compound 0.0949 µM): 0.65%
viability, T/C (second compound 0.316 µM, first compound 0.3 µM): 0.45%
viability, T/C (second compound 1 µM, first compound 0.000949 µM): 116%
viability, T/C (second compound 1 µM, first compound 0.003 µM): 106%
viability, T/C (second compound 1 µM, first compound 0.00949 µM): 56.6%
viability, T/C (second compound 1 µM, first compound 0.03 µM): 0.7%
viability, T/C (second compound 1 µM, first compound 0.0949 µM): 0.26%
viability, T/C (second compound 1 µM, first compound 0.3 µM): 0.31%
viability, T/C (second compound 3.16 µM, first compound 0.000949 µM): 83.9%
viability, T/C (second compound 3.16 µM, first compound 0.003 µM): 97%
viability, T/C (second compound 3.16 µM, first compound 0.00949 µM): 36.1%
viability, T/C (second compound 3.16 µM, first compound 0.03 µM): 0.65%
viability, T/C (second compound 3.16 µM, first compound 0.0949 µM): 2.21%
viability, T/C (second compound 3.16 µM, first compound 0.3 µM): 0.22%
viability, T/C (second compound 10 µM, first compound 0.000949 µM): 21.9%
viability, T/C (second compound 10 µM, first compound 0.003 µM): 24.2%
viability, T/C (second compound 10 µM, first compound 0.00949 µM): 12.7%
viability, T/C (second compound 10 µM, first compound 0.03 µM): 0.35%
viability, T/C (second compound 10 µM, first compound 0.0949 µM): 1.63%
viability, T/C (second compound 10 µM, first compound 0.3 µM): 1.52%

IC50 (second compound 0.1 µM): > 0.1 µM
IC50 (second compound 0.316 µM): > 0.1 µM
IC50 (second compound 1 µM): > 0.1 µM
IC50 (second compound 3.16 µM): > 0.1 µM
IC50 (second compound 10 µM): < 0.000316 µM
Structure (SMILES): Cn1ncnc1C1c2n[nH]c(=O)c3cc(F)cc(c23)NC1c1ccc(F)cc1 (stereo not given) + Cc1cncc(-c2nc(NCCc3c[nH]c4ccccc34)c3ncn(C(C)C)c3n2)c1
viability, T/C (second compound 0.1 µM, first compound 0.000316 µM): 94.1%
viability, T/C (second compound 0.1 µM, first compound 0.001 µM): 93.8%
viability, T/C (second compound 0.1 µM, first compound 0.00316 µM): 99.8%
viability, T/C (second compound 0.1 µM, first compound 0.01 µM): 107%
viability, T/C [1]: 94.7%
viability, T/C [2]: 76.3%
viability, T/C (second compound 0.316 µM, first compound 0.000316 µM): 98.1%
viability, T/C (second compound 0.316 µM, first compound 0.001 µM): 108%
viability, T/C (second compound 0.316 µM, first compound 0.00316 µM): 104%
viability, T/C (second compound 0.316 µM, first compound 0.01 µM): 92.2%
viability, T/C [7]: 99.4%
viability, T/C [8]: 71.8%
viability, T/C (second compound 1 µM, first compound 0.000316 µM): 104%
viability, T/C (second compound 1 µM, first compound 0.001 µM): 110%
viability, T/C (second compound 1 µM, first compound 0.00316 µM): 105%
viability, T/C (second compound 1 µM, first compound 0.01 µM): 101%
viability, T/C [13]: 74.3%
viability, T/C [14]: 66.8%
viability, T/C (second compound 3.16 µM, first compound 0.000316 µM): 101%
viability, T/C (second compound 3.16 µM, first compound 0.001 µM): 86.7%
viability, T/C (second compound 3.16 µM, first compound 0.00316 µM): 104%
viability, T/C (second compound 3.16 µM, first compound 0.01 µM): 64.8%
viability, T/C [19]: 69.8%
viability, T/C [20]: 71.5%
viability, T/C (second compound 10 µM, first compound 0.000316 µM): 15.3%
viability, T/C (second compound 10 µM, first compound 0.001 µM): 12%
viability, T/C (second compound 10 µM, first compound 0.00316 µM): 14.2%
viability, T/C (second compound 10 µM, first compound 0.01 µM): 11.5%
viability, T/C [25]: 12.1%
viability, T/C [26]: 14.5%
